According to US20170008921A1, “C-3 NOVEL TRITERPENONE WITH C-28 REVERSE AMIDE DERIVATIVES AS HIV INHIBITORS” (HETERO RESEARCH FOUNDATION, priority 2015, published 2017):

What was measured:
[1] = Cyto-toxicity (MTT assay); type: cell-based
[2] = Single dose oral pharmacokinetic study; type: in vivo; details: mouse, Mice oral PK @30 mg/kg, plasma, vehicle 10% Solutol+20% PEG; for AUC(0-t): read-out: AUC0-t; for Cmax: read-out: Cmax
Outline: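 Rats or mice dosed orally at 30 mg/kg in 10% Solutol+20% PEG. Acetonitrile precipitation, then LC-MS/MS quantification for PK parameters.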

Compound | viability at 4 days, 0.01 µM [1] [%] | viability at 4 days, 0.1 µM [1] [%] | viability at 4 days, 1 µM [1] [%] | AUC(0-t) [2] [µg·h/mL] | Cmax [2] [ng/mL] | viability at 4 days, 0.001 µM [1] [%] | viability at 4 days, 0.003 µM [1] [%]
CC(C)C1=C2[C@H]3CC[C@@H]4[C@@]5(C)CC[C@H](OC(=O)[C@@H]6C[C@H](C(=O)O)C6(C)C)C(C)(C)[C@@H]5CC[C@@]4(C)[C@]3(C)CC[C@@]2(NC(=O)C(C)(C)NC(=O)c2ccc(Cl)cc2)CC1=O [Example 21, (1S,3R)-3-((((3aR,5aR,5bR,7aR,9S,11aR,11bR,13aS)-3a-(2-(4-chlorobenzamido)-2-methylpropanamido)-1-isopropyl-5a,5b,8,8,11a-pentamethyl-2-oxo-3,3a,4,5,5a,5b,6,7,7a,8,9,10,11,11a,11b,12,13,13a-octadecahydro-2H-cyclopenta[a]chrysen-9-yl)oxy)carbonyl)-2,2-dimethylcyclobutane-1-carboxylic acid] | 36 | 7 | 6 | 191 | 16000 | – | –
CC(C)C1=C2[C@H]3CC[C@@H]4[C@@]5(C)CC[C@H](OC(=O)[C@H]6C[C@@H](C(=O)O)C6(C)C)C(C)(C)[C@@H]5CC[C@@]4(C)[C@]3(C)CC[C@@]2(NC(=O)C(C)(C)NC(=O)c2ccc(S(C)(=O)=O)cc2)CC1=O [Example 51, (1R,3S)-3-((((3aR,5aR,5bR,7aR,9S,11aR,11bR,13aS)-1-isopropyl-5a,5b,8,8,11a-pentamethyl-3a-(2-methyl-2-(4-(methylsulfonyl)benzamido)propanamido)-2-oxo-3,3a,4,5,5a,5b,6,7,7a,8,9,10,11,11a,11b,12,13,13a-octadecahydro-2H-cyclopenta[a]chrysen-9-yl)oxy)carbonyl)-2,2-dimethylcyclobutane-1-carboxylic acid] | 37 | – | – | 277 | 32300 | 86 | 85
CC(C)C1=C2[C@H]3CC[C@@H]4[C@@]5(C)CC[C@H](OC(=O)[C@H]6C[C@@H](C(=O)O)C6(C)C)C(C)(C)[C@@H]5CC[C@@]4(C)[C@]3(C)CC[C@@]2(NC(=O)C(C)(C)NC(=O)c2cccnc2N2CCOCC2)CC1=O [Example 31, (1R,3S)-3-((((3aR,5aR,5bR,7aR,9S,11aR,11bR,13aS)-1-isopropyl-5a,5b,8,8,11a-pentamethyl-3a-(2-methyl-2-(2-morpholinonicotinamido)propan amido)-2-oxo-3,3a,4,5,5a,5b,6,7,7a,8,9,10,11,11a,11b,12,13,13a-octadecahydro-2H-cyclopenta[a]chrysen-9-yl)oxy)carbonyl)-2,2-dimethylcyclobutane-1-carboxylic acid] | 54 | – | – | 255 | 18700 | 81 | 86
CC(C)C1=C2[C@H]3CC[C@@H]4[C@@]5(C)CC[C@H](OC(=O)[C@H]6C[C@@H](C(=O)O)C6(C)C)C(C)(C)[C@@H]5CC[C@@]4(C)[C@]3(C)CC[C@@]2(NC(=O)C(C)(C)NC(=O)c2cc(C(C)C)n[nH]2)CC1=O [Example 17, (1R,3S)-3-((((3aR,5aR,5bR,7aR,9S,11aR,11bR,13aS)-1-isopropyl-3a-(2-(3-isopropyl-1H-pyrazole-5-carboxamido)-2-methylpropanamido)-5a,5b,8,8, 11a-pentamethyl-2-oxo-3,3a,4,5,5a,5b,6,7,7a,8,9,10,11,11a,11b,12,13,13a-octadecahydro-2H-cyclopenta[a]chrysen-9-yl)oxy)carbonyl)-2,2-dimethylcyclobutane-1-carboxylic acid] | 26 | – | – | 333 | 28600 | 81 | 62
Cc1occc1C(=O)NC(C)(C)C(=O)N[C@@]12CC[C@]3(C)[C@H](CC[C@@H]4[C@@]5(C)CC[C@H](OC(=O)[C@H]6C[C@@H](C(=O)O)C6(C)C)C(C)(C)[C@@H]5CC[C@]43C)C1=C(C(C)C)C(=O)C2 [Example 30, (1R,3S)-3-((((3aR,5aR,5bR,7aR,9S,11aR,11bR,13aS)-1-isopropyl-5a,5b,8,8,11a-pentamethyl-3a-(2-methyl-2-(2-methylfuran-3-carboxamido)propan amido)-2-oxo-3,3a,4,5,5a,5b,6,7,7a,8,9,10,11,11a,11b,12,13,13a-octadecahydro-2H-cyclopenta[a]chrysen-9-yl)oxy)carbonyl)-2,2-dimethylcyclobutane-1-carboxylic acid] | 30 | 3 | 2 | 477 | 23000 | – | –
Cc1cccc(NC(=O)NC(C)(C)C(=O)N[C@@]23CC[C@]4(C)[C@H](CC[C@@H]5[C@@]6(C)CC[C@H](OC(=O)[C@H]7C[C@@H](C(=O)O)C7(C)C)C(C)(C)[C@@H]6CC[C@]54C)C2=C(C(C)C)C(=O)C3)n1 [Example 72, (1R,3S)-3-((((3aR,5aR,5bR,7aR,9S,11aR,11bR,13aS)-1-isopropyl-5a,5b,8,8,11a-pentamethyl-3a-(2-methyl-2-(3-(6-methylpyridin-2-yl)ureido)propanamido)-2-oxo-3,3a,4,5,5a,5b,6,7,7a,8,9,10,11,11a,11b,12,13,13a-octadecahydro-2H-cyclopenta[a]chrysen-9-yl)oxy)carbonyl)-2,2-dimethylcyclobutane-1-carboxylic acid] | 27 | – | – | 192 | 15300 | 98 | 84
CC(C)C1=C2[C@H]3CC[C@@H]4[C@@]5(C)CC[C@H](OC(=O)[C@H]6C[C@@H](C(=O)O)C6(C)C)C(C)(C)[C@@H]5CC[C@@]4(C)[C@]3(C)CC[C@@]2(NC(=O)C2(NC(=O)c3ncccn3)CCC2)CC1=O [Example 44, (1R,3S)-3-((((3aR,5aR,5bR,7aR,9S,11aR,11bR,13aS)-1-isopropyl-5a,5b,8,8,11a-pentamethyl-2-oxo-3a-(1-(pyrimidine-2-carboxamido)cyclobutane-1-carboxamido)-3,3a,4,5,5a,5b,6,7,7a,8,9,10,11,11a,11b,12,13,13a-octadecahydro-2H-cyclopenta[a]chrysen-9-yl)oxy)carbonyl)-2,2-dimethylcyclobutane-1-carboxylic acid] | 58 | – | – | 154 | 19800 | 84 | 80
CC(C)C1=C2[C@H]3CC[C@@H]4[C@@]5(C)CC[C@H](OC(=O)[C@H]6C[C@@H](C(=O)O)C6(C)C)C(C)(C)[C@@H]5CC[C@@]4(C)[C@]3(C)CC[C@@]2(NC(=O)C(C)(C)NC(=O)c2ccc(Cl)c(Cl)c2)CC1=O [Example 4, (1R,3S)-3-((((3aR,5aR,5bR,7aR,9S,11aR,11bR,13aS)-3a-(2-(3,4-dichlorobenzamido)-2-methylpropanamido)-1-isopropyl-5a,5b,8,8,11a-pentamethyl-2-oxo-3,3a,4,5,5a,5b,6,7,7a,8,9,10,11,11a,11b,12,13,13a-octadecahydro-2H-cyclopenta[a]chrysen-9-yl)oxy)carbonyl)-2,2-dimethylcyclobutane-1-carboxylic acid] | 20 | 12 | 9 | 185 | 8840 | – | –
Cc1cccc(C(=O)NC(C)(C)C(=O)N[C@@]23CC[C@]4(C)[C@H](CC[C@@H]5[C@@]6(C)CC[C@H](OC(=O)[C@H]7C[C@@H](C(=O)O)C7(C)C)C(C)(C)[C@@H]6CC[C@]54C)C2=C(C(C)C)C(=O)C3)n1 [Example 60, (1R,3S)-3-((((3aR,5aR,5bR,7aR,9S,11aR,11bR,13aS)-1-isopropyl-5a,5b,8,8,11a-pentamethyl-3a-(2-methyl-2-(6-methylpicolinamido)propanamido)-2-oxo-3,3a,4,5,5a,5b,6,7,7a,8,9,10,11,11a,11b,12,13,13a-octadecahydro-2H-cyclopenta[a]chrysen-9-yl)oxy)carbonyl)-2,2-dimethylcyclobutane-1-carboxylic acid] | 77 | 27 | 2 | 217 | 20200 | – | –
CC(C)C1=C2[C@H]3CC[C@@H]4[C@@]5(C)CC[C@H](OC(=O)[C@H]6C[C@@H](C(=O)O)C6(C)C)C(C)(C)[C@@H]5CC[C@@]4(C)[C@]3(C)CC[C@@]2(NC(=O)C(C)(C)NC(=O)C2(c3ccc(Cl)cc3)CC2)CC1=O [Example 2, (1R,3S)-3-((((3aR,5aR,5bR,7aR,9S,11aR,11bR,13aS)-3a-(2-(1-(4-chlorophenyl)cyclopropane-1-carboxamido)-2-methylpropanamido)-1-isopropyl-5a,5b,8,8, 11a-pentamethyl-2-oxo-3,3a,4,5,5a,5b,6,7,7a,8,9,10,11,11a,11b,12,13,13a-octadecahydro-2H-cyclopenta[a]chrysen-9-yl)oxy)carbonyl)-2,2-dimethylcyclobutane-1-carboxylic acid] | 42 | 9 | 8 | 166 | 13200 | – | –
Cc1ccc(-c2nc3cc(C(=O)NC(C)(C)C(=O)N[C@@]45CC[C@]6(C)[C@H](CC[C@@H]7[C@@]8(C)CC[C@H](OC(=O)[C@H]9C[C@@H](C(=O)O)C9(C)C)C(C)(C)[C@@H]8CC[C@]76C)C4=C(C(C)C)C(=O)C5)ccc3[nH]2)cn1 [Example 13, (1R,3S)-3-((((3aR,5aR,5bR,7aR,9S,11aR,11bR,13aS)-1-isopropyl-5a,5b,8,8,11a-pentamethyl-3a-(2-methyl-2-(2-(6-methylpyridin-3-yl)-1H-benzo[d]imidazole-5-carboxamido)propanamido)-2-oxo-3,3a,4,5,5a,5b,6,7,7a,8,9,10,11,11a,11b,12, 13,13a-octadecahydro-2H-cyclopenta[a]chrysen-9-yl)oxy)carbonyl)-2,2-dimethylcyclobutane-1-carboxylic acid] | 45 | 10 | 4 | 18.2 | 2720 | – | –
